Legend:
Assay type in all cases: in vivo
[1] = tested on: beet armyworm (BAW; Spodoptera exigua: Lepidoptera); assay: Insecticidal test for beet armyworm, 128-well diet tray assay
Method: Insecticidal Test for Beet Armyworm (Spodoptera exigua)
(§1) Bioassays on beet armyworm (BAW; Spodoptera exigua: Lepidoptera) were conducted using a 128-well diet tray assay. Three to five second instar BAW larvae were placed in each well (3 mL) of the diet tray that had been previously filled with 1 mL of artificial diet to which 50 μg/cm^2 of the test compound (dissolved in 50 μL of 90:10 acetone-water mixture) had been applied (to each of eight wells) and then allowed to dry. Trays were covered with a clear self-adhesive cover, and held at 25° C., 14:10 light-dark for six days. Percent mortality was recorded for the larvae in each well; activity in the eight wells was then averaged.

[2] = tested on: corn earworm (CEW; Helicoverpa zea: Lepidoptera); assay: Insecticidal test for corn earworm, 128-well diet tray assay
Method: Insecticidal Test for Corn Earworm (Helicoverpa zea)
as §1, with “corn earworm (CEW; Helicoverpa zea:” for “beet armyworm (BAW; Spodoptera exigua:”, “CEW” for “BAW”

[3] = tested on: green peach aphid (Myzus persicae); assay: Insecticidal test for green peach aphid in foliar spray assay on cabbage seedlings
Method: Insecticidal Test for Green Peach Aphid (Myzus persicae) in Foliar Spray Assay
Cabbage seedlings grown in 3-inch pots, with 2-3 small (3-5 cm) true leaves, were used as test substrate. The seedlings were infested with 20-50 green peach aphids (wingless adult and nymph) one day prior to chemical application. Four pots with individual seedlings were used for each treatment. Compounds (2 mg) were dissolved in 2 mL of acetone/methanol (1:1) solvent, forming stock solutions of 1000 ppm. The stock solutions were diluted 5× with 0.025% Tween 20 in H2O to obtain the solution at 200 ppm. A hand-held Devilbiss sprayer was used for spraying a solution to both sides of cabbage leaves until runoff. Reference plants (solvent check) were sprayed with the diluent only. Treated plants were held in a holding room for three days at approximately 25° C. and 40% relative humidity (RH) prior to grading. Evaluation was conducted by counting the number of live aphids per plant under a microscope. Insecticidal activity was measured by using Abbott's correction formula are presented in Table 2: Corrected % Control=100*(X−Y)/X
where • X=No. of live aphids on solvent check plants • Y=No. of live aphids on treated plants

SMILES	% Mortality BAW 50 μg/cm^2 [1]	% Mortality CEW 50 μg/cm^2 [2]	% Mortality GPA 200 ppm [3]
CCOC(=O)C#CC(C)(C)OC(=O)Nc1ccc(-c2ncn(-c3ccc(OC(F)(F)F)cc3)n2)cc1 [Compound 23, 4-methyl-4-{4-[1-(4-trifluoromethoxyphenyl)-1H-[1,2,4]triazol-3-yl]-phenylcarbamoyloxy}-pent-2-ynoic acid ethyl ester]	B (Less than 50)	B (Less than 50)	B (Less than 80)
CC(OC(=O)Nc1ccc(-c2ncn(-c3ccc(OC(F)(F)F)cc3)n2)cc1)C(F)(F)C(F)(F)F (stereo not drawn) [Compound 24, {4-[1-(4-trifluoromethoxyphenyl)-1H-[1,2,4]triazol-3-yl]phenyl}-carbamic acid 2,2,3,3,3-pentafluoro-1-methyl-propyl ester]	A (50-100)	A (50-100)	B (Less than 80)
CC(C)(C)OC(=O)Nc1ccc(-c2ncn(-c3ccc(OC(F)(F)F)cc3)n2)cc1 [Compound 25]	A (50-100)	A (50-100)	B (Less than 80)
CC(OC(=O)Nc1ccc(-c2ncn(-c3ccc(C(F)(F)F)cc3)n2)cc1)c1ccc(C(F)(F)F)cc1 (stereo not drawn) [Compound 27, 1-(4-(trifluoromethyl)phenyl)ethyl 4-(1-(4-(trifluoromethyl)phenyl)-1H-1,2,4-triazol-3-yl)-phenylcarbamate]	A (50-100)	A (50-100)	B (Less than 80)
CC(OC(=O)Nc1ccc(-c2ncn(-c3ccc(C(F)(F)F)cc3)n2)cc1)c1ccc(C(F)(F)F)nc1 (stereo not drawn) [Compound 28]	A (50-100)	A (50-100)	B (Less than 80)
C#CC(OC(=O)Nc1ccc(-c2ncn(-c3ccc(C(F)(F)F)cc3)n2)cc1)c1ccc(C(F)(F)F)cc1 (stereo not drawn) [Compound 29]	A (50-100)	A (50-100)	B (Less than 80)
CCC(OC(=O)Nc1ccc(-c2ncn(-c3ccc(C(F)(F)F)cc3)n2)cc1)c1ccccc1 (stereo not drawn) [Compound 30]	A (50-100)	A (50-100)	B (Less than 80)
C#CC(OC(=O)Nc1ccc(-c2ncn(-c3ccc(C(F)(F)F)cc3)n2)cc1)c1ccccc1 (stereo not drawn) [Compound 31]	A (50-100)	A (50-100)	B (Less than 80)
CC(C)(CCl)OC(=O)Nc1ccc(-c2ncn(-c3ccc(OC(F)(F)C(F)(F)F)cc3)n2)cc1 [Compound 32]	A (50-100)	A (50-100)	B (Less than 80)
CC(OC(=O)Nc1ccc(-c2ncn(-c3ccc(OC(F)(F)C(F)(F)F)cc3)n2)cc1)c1ccc(C(F)(F)F)nc1 (stereo not drawn) [Compound 33]	A (50-100)	A (50-100)	B (Less than 80)
CCC(OC(=O)Nc1ccc(-c2ncn(-c3ccc(OC(F)(F)C(F)(F)F)cc3)n2)cc1)c1ccccc1 (stereo not drawn) [Compound 34]	A (50-100)	A (50-100)	B (Less than 80)
CC(OC(=O)Nc1ccc(-c2ncn(-c3ccc(OC(F)(F)F)cc3)n2)cc1)c1ccc(I)cc1 (stereo not drawn) [Compound 35]	A (50-100)	A (50-100)	B (Less than 80)
CC(OC(=O)Nc1ccc(-c2ncn(-c3ccc(OC(F)(F)F)cc3)n2)cc1)c1ccc2ccccc2n1 (stereo not drawn) [Compound 36]	A (50-100)	A (50-100)	B (Less than 80)
Cc1cccc(C(C)OC(=O)Nc2ccc(-c3ncn(-c4ccc(OC(F)(F)F)cc4)n3)cc2)n1 (stereo not drawn) [Compound 37]	A (50-100)	A (50-100)	B (Less than 80)

Reference: patent publication US8674109B2, “Pesticidal compositions” (Dow AgroSciences, LLC., priority 2009, dated 2014)
